Measured values: patent EP0404945A1 (priority 1989, dated 1990)
Like-named read-outs stand apart in the source and are kept apart here.

Tests used:
Colibacillus = test: microbe, parasite or virus in culture; format: cell-based; conditions: read-out: Efficiency of the preparation, % Colibacillus
Staphylococcus aureus = test: microbe, parasite or virus in culture; format: cell-based; conditions: read-out: Efficiency of the preparation, % Staphylococcus aureus
[1] = system: Infectant of poliomyelitis
ascarid ovi = test: animal or person; format: in vivo, pig.ascarid
Alternaria radicina = format: cell-based
Aspergillus niger = format: cell-based
Fusarium oxysporum = format: cell-based
Helminthosporum saturem = format: cell-based
Venturia inaequalis = format: cell-based
Penicillium sporum = format: cell-based
Candida albicans = test: microbe, parasite or virus in culture; format: cell-based
Candida tropicalis = test: microbe, parasite or virus in culture; format: cell-based
[2] = system: virus of influenza, type A, (H1N1); test: microbe, parasite or virus in culture
houseflies [3] = test: whole plant or invertebrate; conditions: Musca domestica; for mortality at 1 %: read-out: Death of flies, % Tests laboratory
houseflies [4] = conditions: house fly, in vivo
[5] = read-out: Death of ascarid ovi, % Tests laboratory
[6] = 2 h, read-out: Death of test fungi, % to the control, Candida albicans 2 hrs
[7] = 20 h, read-out: Death of test fungi, % to the control, Candida albicans 20 hrs
[8] = 2 h, read-out: Death of test fungi, % to the control, Candida tropicalis 2 hrs
[9] = 20 h, read-out: Death of test fungi, % to the control, Candida tropicalis 20 hrs
[10] = H1N1, 0.5 h, read-out: Death of viruses (%) at 30 minutes exposure, Virus of influenza A
[11] = 24 h, read-out: Death of flies, % after 24 hours
[12] = 72 h, read-out: Death of flies, % after 72 hours
[13] = 24 h, read-out: Death of ascarid ovi, % after 24 hrs
[14] = 48 h, read-out: Death of ascarid ovi, % after 48 hours
[15] = 72 h, read-out: Death of ascarid ovi, % after 72 hours
[16] = H1N1, read-out: Virucidal activity of the preparation in respect of the virus of influenza, type A, %
[17] = 48 h, read-out: Death of flies, % after 48 hours
[18] = 24 h, read-out: Death of ascarid ovi, % after 24 hours

Structure (SMILES): O=[N+]([O-])c1ccc(C(O)C(CO)NP(=O)(O)O)cc1 (stereo not drawn) [Example 1, 1-para-netrophenyl-1,3--propanediolamidophosphoric acid]
- killing at 0.5 % (Colibacillus): 100%
- killing at 0.5 % (Staphylococcus aureus): 80%
- Death of viruses (%) at 60 minutes exposure, Infectant of poliomyelitis [1]: 40%
- killing at 3 % (ascarid ovi; [5]): 100%
- Mycelium growth inhibition, % to the control, Alternaria radicina (Alternaria radicina): 75%
- Mycelium growth inhibition, % to the control, Aspergillus niger (Aspergillus niger): 99%
- Mycelium growth inhibition, % to the control, Fusarium oxisporum (Fusarium oxysporum): 68%
- Mycelium growth inhibition, % to the control, Helminthosporum saturem (Helminthosporum saturem): 54%
- Mycelium growth inhibition, % to the control, Venturia inaequalis (Venturia inaequalis): 32%
- Mycelium growth inhibition, % to the control, Penicillium sporum (Penicillium sporum): 58%
- killing at 0.05 % (Candida albicans; [6]): 98%
- killing at 0.05 % (Candida albicans; [7]): 100%
- killing at 0.05 % (Candida tropicalis; [8]): 96%
- killing at 0.05 % (Candida tropicalis; [9]): 100%

Structure (SMILES): O=[N+]([O-])c1ccc(C(O)C(CCl)NP(=O)(Oc2ccccc2)Oc2ccccc2)cc1 (stereo not drawn) [Example 5, diphenyl ether of 1-para-nitrophenyl-1--hydroxy-3-chloroisopropylamidophosphoric acid]
- killing at 1 % [2, 10]: 100%
- killing at 3 % (ascarid ovi; [5]): 100%
- mortality at 3 % (houseflies [3]; [11]): 35.4%
- mortality at 3 % (houseflies [3]; [12]): 96%

Structure (SMILES): O=[N+]([O-])c1ccc(C(Cl)C(CCl)NP(=O)(Oc2ccccc2)Oc2ccccc2)cc1 (stereo not drawn) [Example 6, 1-para-nitrophenyl-1,3-dichlorisopropylamidophosphoric acid diphenyl ether]
- killing at 1 % [2, 10]: 100%
- killing at 3 % (ascarid ovi; [5]): 100%
- mortality at 3 % (houseflies [3]; [11]): 64.7%
- mortality at 3 % (houseflies [3]; [12]): 98.6%

Structure (SMILES): O=[N+]([O-])c1ccc(C(O)C(CCl)NP(=O)(Nc2ccccc2)Nc2ccccc2)cc1 (stereo not drawn) [Example 7, 1-para-nitrophenyl-1-hydroxy-3-chloroisopro-pylamidophosphoric acid dianilide]
- killing at 1 % [2, 10]: 100%
- killing at 3 % (ascarid ovi; [5]): 100%
- mortality at 3 % (houseflies [3]; [11]): 55.1%
- mortality at 3 % (houseflies [3]; [12]): 94%

Structure (SMILES): O=[N+]([O-])c1ccc(C(Cl)C(CCl)NP(=O)(Nc2ccccc2)Nc2ccccc2)cc1 (stereo not drawn) [Example 8, 1-para- . -nitrophenyl-1,3-dichloroisopropylamidophosphoric acid dianilide]
- killing at 1 % [2, 10]: 100%
- killing at 3 % (ascarid ovi; [5]): 100%
- mortality at 3 % (houseflies [3]; [11]): 66.4%
- mortality at 3 % (houseflies [3]; [12]): 98%

Structure (SMILES): O=[N+]([O-])c1ccc(C(O)C(CCl)NP(=O)(O)Nc2ccccc2)cc1 (stereo not drawn) [Example 9]
- killing at 1 % [2, 10]: 78%
- killing at 3 % (ascarid ovi; [5]): 100%
- mortality at 3 % (houseflies [3]; [11]): 65%
- mortality at 3 % (houseflies [3]; [12]): 96%

Structure (SMILES): O=[N+]([O-])c1ccc(C(Cl)C(CCl)NP(=O)(O)Nc2ccccc2)cc1 (stereo not drawn) [Example 10, 1-para-nitrophenyl-1,3-dichloropropan--2-amidophosphoric acid monoanilide]
- killing at 1 % [2, 10]: 87%
- killing at 3 % (ascarid ovi; [5]): 100%
- mortality at 3 % (houseflies [3]; [11]): 77%
- mortality at 3 % (houseflies [3]; [12]): 99%

Structure (SMILES): COP(=O)(NC(CCl)C(O)c1ccc([N+](=O)[O-])cc1)OC (stereo not drawn) [Example 11, 1-para-nitrophenyl-1-chloro-3-propanolamidophosphoric acid dimethyl ether]
- killing at 1 % [2, 10]: 74%
- killing at 3 % (ascarid ovi; [13]): 100%
- killing at 3 % (ascarid ovi; [14]): 100%
- killing at 3 % (ascarid ovi; [15]): 100%
- Death of flies, % Tests laboratory (houseflies [4]): 72.7%
- mortality at 1 % (houseflies [3]): 67.7%

Structure (SMILES): COP(=O)(NC(CCl)C(Cl)c1ccc([N+](=O)[O-])cc1)OC (stereo not drawn) [Example 12, 1-para-nitrophenyl--1,3-dichloropropanamidophosphoric acid dimethyl ether]
- killing at 1 % [2, 10]: 85%
- killing at 3 % (ascarid ovi; [13]): 100%
- killing at 3 % (ascarid ovi; [14]): 100%
- killing at 3 % (ascarid ovi; [15]): 100%
- mortality at 1 % (houseflies [3]): 71.4%

Structure (SMILES): CCOP(=O)(NC(CCl)C(O)c1ccc([N+](=O)[O-])cc1)OCC (stereo not drawn) [Example 13, 1-para-nitrophenyl-1-chloro-3-propanolamidophosphoric acid diethyl ether]
- killing at 1 % [2, 10]: 90%
- killing at 3 % (ascarid ovi; [13]): 100%
- killing at 3 % (ascarid ovi; [14]): 100%
- killing at 3 % (ascarid ovi; [15]): 100%
- mortality at 1 % (houseflies [3]): 99.6%

Structure (SMILES): CCOP(=O)(NC(CCl)C(Cl)c1ccc([N+](=O)[O-])cc1)OCC (stereo not drawn) [Example 14, 1-para-nitrophenyl-1,3--dichloropropanamidophosphoric acid diethyl ether]
- killing at 1 % [2, 10]: 90%
- killing at 3 % (ascarid ovi; [13]): 100%
- killing at 3 % (ascarid ovi; [14]): 100%
- killing at 3 % (ascarid ovi; [15]): 100%

Structure (SMILES): CCOP(=O)(O)NC(CO)C(O)c1ccc([N+](=O)[O-])cc1 (stereo not drawn) [Example 29, 1-para-nitrophenyl-1,3-propanediolamidophos-phoric acid ethyl ether]
- killing at 1 % [2, 16]: 83.3%
- killing at 2 % [2, 16]: 86.7%
- killing at 3 % (ascarid ovi; [5]): 100%
- mortality at 2 % (houseflies [3]; [17]): 56%
- mortality at 2 % (houseflies [3]; [12]): 92.3%

Structure (SMILES): CCOP(=O)(O)NC(CCl)C(O)c1ccc([N+](=O)[O-])cc1 (stereo not drawn) [Example 30]
- killing at 1 % [2, 16]: 71.2%
- killing at 2 % [2, 16]: 79%
- killing at 3 % (ascarid ovi; [5]): 100%
- mortality at 2 % (houseflies [3]; [17]): 42.8%
- mortality at 2 % (houseflies [3]; [12]): 94%

Structure (SMILES): CCOP(=O)(O)NC(CCl)C(Cl)c1ccc([N+](=O)[O-])cc1 (stereo not drawn) [Example 31, 1-para-nitrophenyl-1,3-dichloropropanamidophosphor-ic acid ethyl ether]
- killing at 1 % [2, 16]: 36.9%
- killing at 2 % [2, 16]: 46.9%
- killing at 3 % (ascarid ovi; [5]): 100%
- mortality at 2 % (houseflies [3]; [17]): 44.2%
- mortality at 2 % (houseflies [3]; [12]): 91.3%

Structure (SMILES): O=C(N[C@H](COP(=O)(NC(CCl)C(O)c1ccc([N+](=O)[O-])cc1)OC[C@@H](NC(=O)C(Cl)Cl)[C@H](O)c1ccc([N+](=O)[O-])cc1)[C@H](O)c1ccc([N+](=O)[O-])cc1)C(Cl)Cl (stereo partly drawn) [Example 32]
- killing at 3 % (ascarid ovi; [5]): 100%

Structure (SMILES): O=[N+]([O-])c1ccc(C(O)C(CCl)NP(=O)(O)Oc2ccccc2)cc1 (stereo not drawn) [Example 58]
- killing at 1 % [2, 16]: 83.4%
- killing at 2 % [2, 16]: 86%
- killing at 2 % (ascarid ovi; [18]): 95.4%
- killing at 2 % (ascarid ovi; [14]): 100%
- mortality at 2 % (houseflies [3]; [17]): 72%
- mortality at 2 % (houseflies [3]; [12]): 99%

Structure (SMILES): O=[N+]([O-])c1ccc(C(Cl)C(CCl)NP(=O)(O)Oc2ccccc2)cc1 (stereo not drawn) [Example 59, 1-para-nitrophenyl-1,3-dichloropropane--2-amidophosphoric acid monophenyl ether]
- killing at 1 % [2, 16]: 92.3%
- killing at 2 % [2, 16]: 96.1%
- killing at 2 % (ascarid ovi; [18]): 91.8%
- killing at 2 % (ascarid ovi; [14]): 100%
- mortality at 2 % (houseflies [3]; [17]): 60%
- mortality at 2 % (houseflies [3]; [12]): 91.2%

Structure (SMILES): O=S(=O)(NCl)c1ccccc1 [Known bactericidal preparation, Sodium N-Chlorobenzenesulphamide, reference compound]
- killing at 0.5 % (Colibacillus): 100%
- killing at 0.5 % (Staphylococcus aureus): 100%
- killing at 1 % [2, 16]: 22%
- killing at 2 % [2, 16]: 28%

Structure (SMILES): CNC(=S)S [Known ovocidal preparation (carbathion), sodium N-methyldithiocarbamate dihydrate, reference compound]
- killing at 2 % (ascarid ovi; [18]): 60%
- killing at 3 % (ascarid ovi; [13]): 100%
- killing at 2 % (ascarid ovi; [14]): 80%
- killing at 3 % (ascarid ovi; [14]): 100%
- killing at 3 % (ascarid ovi; [5]): 80%

Structure (SMILES): O=C1C(Cl)=C(Cl)C(=O)c2ccccc21 [Phygon, 2,3-dichloronaphtho-quinone-1,4, reference compound]
- Mycelium growth inhibition, % to the control, Alternaria radicina (Alternaria radicina): 94%
- Mycelium growth inhibition, % to the control, Aspergillus niger (Aspergillus niger): 100%
- Mycelium growth inhibition, % to the control, Fusarium oxisporum (Fusarium oxysporum): 58%
- Mycelium growth inhibition, % to the control, Helminthosporum saturem (Helminthosporum saturem): 92%
- Mycelium growth inhibition, % to the control, Venturia inaequalis (Venturia inaequalis): 98%
- Mycelium growth inhibition, % to the control, Penicillium sporum (Penicillium sporum): 100%
- killing at 0.05 % (Candida albicans; [6]): 68%
- killing at 0.05 % (Candida albicans; [7]): 100%
- killing at 0.05 % (Candida tropicalis; [8]): 76%
- killing at 0.05 % (Candida tropicalis; [9]): 100%
